Measurements as given in the supplement of paper PMC10627819.

Key:
S. pneumoniae D39V = assay: fitness (endpoint OD595 vs no drug) (fraction); higher = more growth
Method in brief: (§1)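 Bacterial fitness was scored as optical density at the stationary-phase transition relative to the robust mean of no-drug control wells. Scores are capped at 1. The growth data were OD595 readings every 30 min for 14 h at 37 °C, background-subtracted against the first reading, from 384-well plates inoculated at OD595 0.01 in TSB, LB Lennox or CY.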

B. subtilis 168 = assay: as above
Method in brief: as §1
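Note: OD595 on entry to stationary phase over no-drug wells; at most 1.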

CN(C)[C@@H]1C(O)=C(C(N)=O)C(=O)[C@@]2(O)C(O)=C3C(=O)c4c(O)ccc(Cl)c4[C@@](C)(O)[C@H]3C[C@@H]12 [Chlortetracycline] + C[C@H]1COc2c(N3CCN(C)CC3)c(F)cc3c(=O)c(C(=O)O)cn1c23 [Levofloxacin]
Conditions	fitness
B. subtilis 168, first compound 0.0475 µg/mL, partner 0.002 µg/mL	0.898
B. subtilis 168, first compound 0.0475 µg/mL, partner 0.0039 µg/mL	0.855
B. subtilis 168, first compound 0.0475 µg/mL, partner 0.0312 µg/mL	0.0308
B. subtilis 168, first compound 0.0475 µg/mL, partner 0.0625 µg/mL	0.0341
B. subtilis 168, first compound 0.0475 µg/mL, partner 0.125 µg/mL	0.0327
B. subtilis 168, first compound 0.095 µg/mL, partner 0.002 µg/mL	0.854
B. subtilis 168, first compound 0.095 µg/mL, partner 0.0039 µg/mL	0.854
B. subtilis 168, first compound 0.095 µg/mL, partner 0.0312 µg/mL	0.0231
B. subtilis 168, first compound 0.095 µg/mL, partner 0.0625 µg/mL	0.0369
B. subtilis 168, first compound 0.095 µg/mL, partner 0.125 µg/mL	0.028
B. subtilis 168, first compound 0.19 µg/mL, partner 0.002 µg/mL	0.593
B. subtilis 168, first compound 0.19 µg/mL, partner 0.0039 µg/mL	0.61
B. subtilis 168, first compound 0.19 µg/mL, partner 0.0312 µg/mL	0.0218
B. subtilis 168, first compound 0.19 µg/mL, partner 0.0625 µg/mL	0.054
B. subtilis 168, first compound 0.19 µg/mL, partner 0.125 µg/mL	0.032
S. pneumoniae D39V, first compound 0.012 µg/mL, partner 0.1725 µg/mL	0.949
S. pneumoniae D39V, first compound 0.012 µg/mL, partner 0.345 µg/mL	0.803
S. pneumoniae D39V, first compound 0.012 µg/mL, partner 0.69 µg/mL	0.603
S. pneumoniae D39V, first compound 0.024 µg/mL, partner 0.1725 µg/mL	0.909
S. pneumoniae D39V, first compound 0.024 µg/mL, partner 0.345 µg/mL	0.88
S. pneumoniae D39V, first compound 0.024 µg/mL, partner 0.69 µg/mL	0.546
S. pneumoniae D39V, first compound 0.048 µg/mL, partner 0.1725 µg/mL	0.869
S. pneumoniae D39V, first compound 0.048 µg/mL, partner 0.345 µg/mL	0.828
S. pneumoniae D39V, first compound 0.375 µg/mL, partner 0.2 µg/mL	0.0411
S. pneumoniae D39V, first compound 0.375 µg/mL, partner 0.4 µg/mL	0.0338
S. pneumoniae D39V, first compound 0.375 µg/mL, partner 0.8 µg/mL	0.0351
S. pneumoniae D39V, first compound 0.75 µg/mL, partner 0.2 µg/mL	0.0448
S. pneumoniae D39V, first compound 0.75 µg/mL, partner 0.4 µg/mL	0.0671
S. pneumoniae D39V, first compound 0.75 µg/mL, partner 0.8 µg/mL	0.0531
S. pneumoniae D39V, first compound 1.5 µg/mL, partner 0.2 µg/mL	0.0471
S. pneumoniae D39V, first compound 1.5 µg/mL, partner 0.4 µg/mL	0.0332
S. pneumoniae D39V, first compound 1.5 µg/mL, partner 0.8 µg/mL	0.0439

fitness, B. subtilis 168, one replicate
Conditions	first compound 0.0475 µg/mL	first compound 0.095 µg/mL	first compound 0.19 µg/mL
partner 0.001 µg/mL	0.924	0.912	0.674
partner 0.0078 µg/mL	0.907	0.824	0.623

C[C@H]1c2cccc(O)c2C(=O)C2=C(O)[C@]3(O)C(=O)C(C(N)=O)=C(O)[C@@H](N(C)C)[C@@H]3[C@@H](O)[C@@H]21 [Doxycycline] + CC1=C(C(=O)O)N2C(=O)[C@@H](NC(=O)[C@H](N)c3ccccc3)[C@H]2SC1 [Cephalexin]
fitness, one replicate
Conditions	partner 0.125 µg/mL	partner 0.25 µg/mL	partner 0.5 µg/mL	partner 1 µg/mL	partner 2 µg/mL	partner 4 µg/mL
B. subtilis 168, first compound 0.02 µg/mL	–	–	–	≥ 1	–	–
B. subtilis 168, first compound 0.04 µg/mL	–	–	–	0.84	–	–
B. subtilis 168, first compound 0.08 µg/mL	–	–	–	0.793	–	–
S. pneumoniae D39V, first compound 0.003875 µg/mL	–	–	–	0.601	0.0976	0.0088
S. pneumoniae D39V, first compound 0.00775 µg/mL	–	–	–	0.722	0.186	0.0118
S. pneumoniae D39V, first compound 0.0155 µg/mL	0.902	0.867	0.879	–	–	–
S. pneumoniae D39V, first compound 0.031 µg/mL	0.916	0.885	0.887	0.756	0.634	0.0444
S. pneumoniae D39V, first compound 0.062 µg/mL	0.807	0.808	0.809	0.667	0.51	0.0551

Conditions	fitness
B. subtilis 168, first compound 0.02 µg/mL, partner 0.125 µg/mL	0.834
B. subtilis 168, first compound 0.02 µg/mL, partner 0.25 µg/mL	0.871
B. subtilis 168, first compound 0.02 µg/mL, partner 0.5 µg/mL	0.907
B. subtilis 168, first compound 0.04 µg/mL, partner 0.125 µg/mL	0.702
B. subtilis 168, first compound 0.04 µg/mL, partner 0.25 µg/mL	0.771
B. subtilis 168, first compound 0.04 µg/mL, partner 0.5 µg/mL	0.711
B. subtilis 168, first compound 0.08 µg/mL, partner 0.125 µg/mL	0.413
B. subtilis 168, first compound 0.08 µg/mL, partner 0.25 µg/mL	0.375
S. pneumoniae D39V, first compound 0.0155 µg/mL, partner 1 µg/mL	0.873
S. pneumoniae D39V, first compound 0.0155 µg/mL, partner 2 µg/mL	0.474
S. pneumoniae D39V, first compound 0.0155 µg/mL, partner 4 µg/mL	0.0211

C[C@H]1c2cccc(O)c2C(=O)C2=C(O)[C@]3(O)C(=O)C(C(N)=O)=C(O)[C@@H](N(C)C)[C@@H]3[C@@H](O)[C@@H]21 [Doxycycline] + COc1cccc2c1C(=O)c1c(O)c3c(c(O)c1C2=O)C[C@@](O)(C(=O)CO)C[C@@H]3O[C@H]1C[C@H](N)[C@H](O)[C@H](C)O1 [Doxorubicin]
fitness, S. pneumoniae D39V, one replicate
Conditions	partner 0.25 µg/mL	partner 0.5 µg/mL	partner 1 µg/mL
first compound 0.003875 µg/mL	0.916	0.914	0.887
first compound 0.00775 µg/mL	0.885	0.891	0.848

fitness
Conditions	partner 0.25 µg/mL	partner 0.5 µg/mL	partner 0.625 µg/mL	partner 1 µg/mL	partner 1.25 µg/mL	partner 2.5 µg/mL
B. subtilis 168, first compound 0.02 µg/mL	–	–	0.915	–	0.854	0.695
B. subtilis 168, first compound 0.04 µg/mL	–	–	0.722	–	0.712	0.58
S. pneumoniae D39V, first compound 0.0155 µg/mL	0.833	0.826	–	0.814	–	–
